Test results as given in patent publication US20180370927A1, “MICROBIOCIDAL OXADIAZOLE DERIVATIVES” (SYNGENTA PARTICIPATIONS AG, priority 2015, published 2018).

What was measured:
[1] = system: Puccinia recondita f. Sp. Tritici; experiment: Puccinia recondita f. sp. tritici / wheat / leaf disc preventative (brown rust); type: in vivo; settings: foliar, 200 ppm in the applied formulation, wheat leaf segments, preventative, assessed 7 to 9 days after application, read-out: disease control compared to untreated control leaf disks
Summary of the method: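 Wheat cv. Kanzler leaf segments on agar sprayed with formulated compound in water, inoculated with rust spores 1 day later. Incubated at 19° C, 75% rh, 12 h light/12 h dark; percent disease control versus untreated scored 7 to 9 days after application; tested at 200 ppm.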

[2] = system: Puccinia recondita f. Sp. Tritici; experiment: Puccinia recondita f. sp. tritici / wheat / leaf disc curative (brown rust); type: in vivo; settings: foliar, 200 ppm in the applied formulation, wheat leaf segments, curative (applied 1 day after inoculation), assessed 6 to 8 days after application, read-out: disease control compared to untreated control leaf disks
Summary of the method: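 Curative treatment: formulated compound in water was applied 1 day post-inoculation to spore-inoculated wheat cv. Kanzler segments held on agar. Segments stayed at 19° C and 75% relative humidity (12 h photoperiod after application), and disease control relative to untreated checks was assessed 6 to 8 days later.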

[3] = system: Phakopsora pachyrhizi; experiment: Phakopsora pachyrhizi / soybean / leaf disc preventative (Asian soybean rust); type: in vivo; settings: foliar, 200 ppm in the applied formulation, soybean leaf disks, assessed 12 to 14 days after application, read-out: disease control compared to untreated control leaf disks
Summary of the method: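 Soybean leaf discs on water agar were sprayed with formulated compound diluted in water, then inoculated one day later with spore suspension on the lower leaf surface. Held 24-36 h dark at 20° C., 75% RH, then 12 h light/day; percent disease control versus untreated scored 12 to 14 days after application.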

[4] = system: Glomerella lacenarium (Colletotrichum lacenarium); experiment: Glomerella lacenarium (Colletotrichum lacenarium) liquid culture / cucumber / preventative (anthracnose); type: cell-based; settings: 20 ppm in the applied formulation, liquid culture in PDB, 24° C., 3 to 4 days after application, read-out: disease control (inhibition of growth, photometric) compared to untreated control
Summary of the method: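 At 20 ppm in the applied formulation, compounds were mixed with fungal spores in potato dextrose broth and held at 24° C. After 3–4 days, photometric growth measurement gave percent antifungal activity relative to untreated control.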

CCC(=O)C(=O)NCc1ccc(-c2noc(C(F)(F)F)n2)cc1Cl [Compound 1.64, N-[[2-chloro-4-[5-(trifluoromethyl)-1,2,4-oxadiazol-3-yl]phenyl]methyl]-2-oxo-butanamide]
≥ 80%: pest or weed control at 200 ppm [1] | pest or weed control at 200 ppm [2] | pest or weed control at 200 ppm [3] | inhibition at 20 ppm [4]

CON(Cc1ccc(-c2noc(C(F)(F)F)n2)cc1)C(=O)C(=O)c1ccccc1 [Compound 1.76, N-methoxy-2-oxo-phenyl-N-[[4-[5-(trifluoromethyl)-1,2,4-oxadiazol-3-yl]phenyl]methyl]acetamide]
≥ 80%: pest or weed control at 200 ppm [1] | pest or weed control at 200 ppm [2] | pest or weed control at 200 ppm [3] | inhibition at 20 ppm [4]

CON(Cc1ccc(-c2noc(C(F)(F)F)n2)cc1F)C(=O)C(=O)N(C)C [Compound 4.95, N′-[[2-fluoro-4-[5-(trifluoromethyl)-1,2,4-oxadiazol-3-yl]phenyl]methyl]-N′-methoxy-N,N-dimethyl-oxamide]
≥ 80%: pest or weed control at 200 ppm [1] | pest or weed control at 200 ppm [2] | pest or weed control at 200 ppm [3] | inhibition at 20 ppm [4]

CCN(C)C(=O)C(=O)NCc1ccc(-c2noc(C(F)(F)F)n2)cc1 [Compound 4.54, N′-ethyl-N′-methyl-N-[[4-[5-(trifluoromethyl)-1,2,4-oxadiazol-3-yl]phenyl]methyl] oxamide]
≥ 80%: pest or weed control at 200 ppm [1] | pest or weed control at 200 ppm [2] | pest or weed control at 200 ppm [3] | inhibition at 20 ppm [4]

CCC(C)N(Cc1ccc(-c2noc(C(F)(F)F)n2)cc1)C(=O)C(C)=O (centres unmarked) [Compound 1.12, 2-oxo-N-sec-butyl-N-[[4-[5-(trifluoromethyl)-1,2,4-oxadiazol-3-yl]phenyl]methyl]propanamide]
≥ 80%: pest or weed control at 200 ppm [1] | pest or weed control at 200 ppm [2] | pest or weed control at 200 ppm [3] | inhibition at 20 ppm [4]

CCON(Cc1ccc(-c2noc(C(F)(F)F)n2)cc1)C(=O)C(N)=O [Compound 4.86, N′-ethoxy-N′-[[4-[5-(trifluoromethyl)-1,2,4-oxadiazol-3-yl]phenyl]methyl] oxarnide]
≥ 80%: pest or weed control at 200 ppm [1] | pest or weed control at 200 ppm [2] | pest or weed control at 200 ppm [3] | inhibition at 20 ppm [4]

Cc1cc(-c2noc(C(F)(F)F)n2)ccc1CNC(=O)C(=O)N(C)C [Compound 4.97, N′,N′-dimethyl-N-[[2-methyl-4-[5-(trifluoromethyl)-1,2,4-oxadiazol-3-yl]phenyl]methyl] oxamide]
≥ 80%: pest or weed control at 200 ppm [1] | pest or weed control at 200 ppm [2] | pest or weed control at 200 ppm [3] | inhibition at 20 ppm [4]

O=C(NCc1ccc(-c2noc(C(F)(F)F)n2)cc1F)C(=O)c1ccco1 [Compound 1.77, N-[[2-fluoro-4-[5-(trifluoromethyl)-1,2,4-oxadiazol-3-yl]phenyl]methyl]-2-(2-furyl)-2-oxo-acetamide]
≥ 80%: pest or weed control at 200 ppm [1] | pest or weed control at 200 ppm [2] | pest or weed control at 200 ppm [3] | inhibition at 20 ppm [4]

CON(Cc1ccc(-c2noc(C(F)(F)F)n2)cc1)C(=O)C(=O)CC(C)C [Compound 1.72, N-methoxy-4-methyl-2-oxo-N-[[4-[5-(trifluoromethyl)-1,2,4-oxadiazol-3-yl]phenyl]methyl]pentanamide]
≥ 80%: pest or weed control at 200 ppm [1] | pest or weed control at 200 ppm [2] | pest or weed control at 200 ppm [3] | inhibition at 20 ppm [4]

CCC(=O)C(=O)NCc1ccc(-c2noc(C(F)(F)F)n2)c(F)c1F [Compound 1.80, N-[[2,3-difluoro-4-[5-(trifluoromethyl)-1,2,4-oxadiazol-3-yl]phenyl]methyl]-2-oxo-butanamide]
≥ 80%: pest or weed control at 200 ppm [1] | pest or weed control at 200 ppm [2] | pest or weed control at 200 ppm [3] | inhibition at 20 ppm [4]

CC(=O)C(=O)N(C)Cc1ccc(-c2noc(C(F)(F)F)n2)cc1 [Compound 1.20, N-methyl-2-oxo-N-[[4-[5-(trifluoromethyl)-1,2,4-oxadiazol-3-yl]phenyl]methyl]propanamide]
≥ 80%: pest or weed control at 200 ppm [1] | pest or weed control at 200 ppm [2] | pest or weed control at 200 ppm [3] | inhibition at 20 ppm [4]

C=CCN(Cc1ccc(-c2noc(C(F)(F)F)n2)cc1)C(=O)C(=O)CCC [Compound 1.17, N-allyl-2-oxo-N-[[4-[5-(trifluoromethyl)-1,2,4-oxadiazol-3-yl]phenyl]methyl]pentanamide]
≥ 80%: pest or weed control at 200 ppm [1] | pest or weed control at 200 ppm [2] | pest or weed control at 200 ppm [3] | inhibition at 20 ppm [4]

CCCN(Cc1ccc(-c2noc(C(F)(F)F)n2)cc1)C(=O)C(=O)CC [Compound 1.31, 2-oxo-N-propyl-N-[[4-[5-(trifluoromethyl)-1,2,4-oxadiazol-3-yl]phenyl]methyl]butanamide]
≥ 80%: pest or weed control at 200 ppm [1] | pest or weed control at 200 ppm [2] | pest or weed control at 200 ppm [3] | inhibition at 20 ppm [4]

C#CCN(Cc1ccc(-c2noc(C(F)(F)F)n2)cc1)C(=O)C(=O)CCC [Compound 1.5, 2-oxo-N-prop-2-ynyl-N-[[4-[5-(trifluoromethyl)-1,2,4-oxadiazol-3-yl]phenyl]methyl]pentanamide]
≥ 80%: pest or weed control at 200 ppm [1] | pest or weed control at 200 ppm [2] | pest or weed control at 200 ppm [3] | inhibition at 20 ppm [4]

CON(Cc1ccc(-c2noc(C(F)(F)F)n2)cc1)C(=O)C(=O)C(C)(C)C [Compound 1.74, N-methoxy-3,3-dimethyl-2-oxo-N-[[4-[5-(trifluoromethyl)-1,2,4-oxadiazol-3-yl]phenyl]methyl]butanamide]
≥ 80%: pest or weed control at 200 ppm [1] | pest or weed control at 200 ppm [2] | pest or weed control at 200 ppm [3] | inhibition at 20 ppm [4]

CON(Cc1ccc(-c2noc(C(F)(F)F)n2)cc1F)C(=O)C(=O)CC(C)C [Compound 1.55, N-[[2-fluoro-4-[5-(trifluoromethyl)-1,2,4-oxadiazol-3-yl]phenyl]methyl]-N-methoxy-4-methyl-2-oxo-pentanamide]
≥ 80%: pest or weed control at 200 ppm [1] | pest or weed control at 200 ppm [2] | pest or weed control at 200 ppm [3] | inhibition at 20 ppm [4]

CCON=C(C)C(=O)N(Cc1ccc(-c2noc(C(F)(F)F)n2)cc1)OC [Compound 2.12, 2-ethoxyimino-N-methoxy-N-[[4-[5-(trifluoromethyl)-1,2,4-oxadiazol-3-yl]phenyl]methyl] propanamide]
≥ 80%: pest or weed control at 200 ppm [1] | pest or weed control at 200 ppm [2] | pest or weed control at 200 ppm [3] | inhibition at 20 ppm [4]

CC(C)CC(=O)C(=O)NCc1ccc(-c2noc(C(F)(F)F)n2)cc1F [Compound 1.38, N-[[2-fluoro-4-[5-(trifluoromethyl)-1,2,4-oxadiazol-3-yl]phenyl]methyl]-4-methyl-2-oxo-pentanamide]
≥ 80%: pest or weed control at 200 ppm [1] | pest or weed control at 200 ppm [2] | pest or weed control at 200 ppm [3] | inhibition at 20 ppm [4]

CC(C)(C)C(=O)C(=O)NCc1ccc(-c2noc(C(F)(F)F)n2)cc1F [Compound 1.40, N-[[2-fluoro-4-[5-(trifluoromethyl)-1,2,4-oxadiazol-3-yl]phenyl]methyl]-3,3-dimethyl-2-oxo-butanamide]
≥ 80%: pest or weed control at 200 ppm [1] | pest or weed control at 200 ppm [2] | pest or weed control at 200 ppm [3] | inhibition at 20 ppm [4]

O=C(NCc1ccc(-c2noc(C(F)(F)F)n2)cc1)C(=O)N1CCOCC1 [Compound 4.59, 2-morpholino-2-oxo-N-[[4-[5-(trifluoromethyl)-1,2,4-oxadiazol-3-yl]phenyl]methyl] acetamide]
≥ 80%: pest or weed control at 200 ppm [1] | pest or weed control at 200 ppm [2] | pest or weed control at 200 ppm [3] | inhibition at 20 ppm [4]

CN(Cc1ccc(-c2noc(C(F)(F)F)n2)cc1)C(=O)C(=O)C1CC1 [Compound 1.94, 2-cyclopropyl-N-methyl-2-oxo-N-[[4-[5-(trifluoromethyl)-1,2,4-oxadiazol-3-yl]phenyl]methyl]acetamide]
≥ 80%: pest or weed control at 200 ppm [1] | pest or weed control at 200 ppm [2] | pest or weed control at 200 ppm [3] | inhibition at 20 ppm [4]

C=CCN(Cc1ccc(-c2noc(C(F)(F)F)n2)cc1)C(=O)C(N)=O [Compound 4.26, N′-allyl-N′-[[4-[5-(trifluoromethyl)-1,2,4-oxadiazol-3-yl]phenyl]methyl] oxamide]
≥ 80%: pest or weed control at 200 ppm [1] | pest or weed control at 200 ppm [2] | pest or weed control at 200 ppm [3] | inhibition at 20 ppm [4]

CCC(=O)C(=O)NCc1ccc(-c2noc(C(F)(F)F)n2)cc1F [Compound 1.41, N-[[2-fluoro-4-[5-(trifluoromethyl)-1,2,4-oxadiazol-3-yl]phenyl]methyl]-2-oxo-butanamide]
≥ 80%: pest or weed control at 200 ppm [1] | pest or weed control at 200 ppm [2] | pest or weed control at 200 ppm [3] | inhibition at 20 ppm [4]
